The test system of assay [1] is DLD-1 BRCA2−/− cells. Description: Homologous recombination synthetic lethal inhibition of proliferation, DLD-1 BRCA2-/- (Cell Titre Glo 3D). It is filed as cell-based. To be noted: Homo sapiens. In short, it runs like this:
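Proliferation of HR-deficient DLD-1 BRCA2−/− versus isogenic wild-type DLD-1 was measured by ATP luminescence (CellTiter-Glo 3D). Compound exposure lasted 12 or 7 days, respectively, with a fresh dose on day 6. IC50 was the concentration halving maximal signal.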

Assay [2] deals with DLD-1 cells. Description: Inhibition of proliferation, DLD-1 BRCA2 wt control (Cell Titre Glo 3D). Type of assay: cell-based. To be noted: Homo sapiens. The text has this: This assay identifies anti-proliferative effects of POLQ compounds in the homologous recombination deficient colorectal cell line DLD-1 BRCA2−/− over 8-9 population doublings (7 days for DLD-1 and 12 days for DLD-1 BRCA2−/−). DLD1 BRCA2 wt are used as a control to detect cell toxic effects not specific to homologous recombination deficiency.
DLD-1 BRCA2−/− and DLD-1 cells were kept in continuous culture in Assay Medium (RPMI 1640 phenol red free (Sigma R7509) containing 1% GlutaMAX (Gibco 35050) and 10% Foetal Bovine Serum (Gibco 10270-106)). On the day of the assay cells in culture of ˜80-90% confluent were used. Cell monolayers were washed with 10 mL PBS, then removed and added 2 mL TrypLE Express (Gibco 12604). The cells with TrypLE Express were incubated for 5 minutes in cell culture incubator and then the detached cells resuspend in 15 mL Assay Medium. Cells were counted using a ViCell and the cell images were monitored for clumps of cells, ideally they should be single or <3 cell clusters. The cells were diluted to 3,000 cells/mL of DLD-1 BRCA2−/− and 1,500 cells/mL of DLD-1 in Assay Medium and 100 μL added per well of transparent bottomed, black, tissue culture-treated 96-well plates (CoStar, No. 3904) Assay Ready Plates. The Assay Ready Plates contain a 10 point 10 μM to 0.51 nM dose range with three-fold dilutions in DMSO with a final volume of 100 nL. The plates were incubated at 37° C. with 5% C02 for 6 days. On day 6, 100 μL/well of Assay Medium was added to duplicate Assay Ready Plates. 90 μL of culture medium was removed from the cell plates and replenished with the Assay Media and compounds from the duplicate Assay Ready Plates using the Bravo. The plates were further incubated at 37° C. with 5% CO2. On day 7 the plates containing DLD-1 and Cell Titre Glo 3D (Promega G9683) were equilibrated to room temperature, then 60 μL of Cell Titre Glo 3D was added per well and incubated on a shaking platform for 30 min. Plates were read on the Envision measuring luminescence for 1 second per well. On day 12 the plates containing DLD-1 BRCA2−/− cells and Cell Titre Glo 3D (Promega G9683) were equilibrated to room temperature, then 60 μL Cell Titre Glo 3D added per well and incubated on a shaking platform for 30 min. Plates were read on the Envision measuring luminescence for 1 second per well. The data was exported into a suitable software package (such as Genedata) to perform curve fitting analysis. Inhibition of cell proliferation was expressed as an IC5o value and was determined by calculation of the concentration of compound that was required to give a 50% reduction of the average maximum Total Intensity signal.

[3] abbreviates: DLD-1, proliferation, luminescence, taken as DLD-1 BRCA2-/-, read-out: POLQ PD Prolif Lumin (converted).
Where [4] appears, read: DLD-1, proliferation, luminescence, second Prolif column (c6), taken as DLD-1 BRCA2 wt control, read-out: POLQ PD Prolif Lumin (converted).
[5] abbreviates: DLD-1, 288 h, DLD-1 BRCA2−/− cells, 12 days, read-out: POLQ PD Prolif Lumin BRCA2 −/− mean pIC50 (converted).
Setting [6] is: DLD-1, 168 h, DLD-1 BRCA2 wt cells, 7 days, read-out: POLQ PD Prolif Lumin DLD1 mean pIC50 (converted).
The mark [7] stands for this setting: DLD-1, DLD-1 BRCA2-/- proliferation, column head only partly shown, read-out: POLQ PD Prolif Lumin (converted).
Where [8] appears, read: DLD-1, DLD-1 BRCA2 wt control proliferation, column head only partly shown, read-out: POLQ PD Prolif Lumin (converted).
The mark [9] stands for this setting: DLD-1, DLD-1 BRCA2 −/−, mean, read-out: POLQ PD Prolif Lumin BRCA2 −/− mean pIC50 (converted).
Where [10] appears, read: DLD-1, DLD1 BRCA2 wt, mean, read-out: POLQ PD Prolif Lumin DLD1 mean pIC50 (converted).
[11] abbreviates: DLD-1, first proliferation column (c5), taken as DLD-1 BRCA2-/-, read-out: POLQ PD Prolif Lumin (converted).
The mark [12] stands for this setting: DLD-1, second proliferation column (c6), taken as DLD-1 BRCA2 wt, read-out: POLQ PD Prolif Lumin (converted).

Read-outs that look alike come from different tables or passages of the source.

For `COCc1cc(OCCN2CCN(C)CC2)ccc1-c1nc2c(OC3(C)CC3)ncnc2n1Cc1ccccc1` [Example T612, 9-benzyl-8-(2-(methoxymethyl)-4-(2-(4-methylpiperazin-1-yl)ethoxy)phenyl)-6-(1-methylcyclopropoxy)-9H-purine], the IC50 was 1000 nM in assay [1] (DLD-1, first proliferation column, DLD-1 BRCA2-/-, read-out: POLQ PD Prolif Lumin (converted)) and greater than 10000 nM in assay [2] (DLD-1, second proliferation column, DLD-1 BRCA2 wt control, read-out: POLQ PD Prolif Lumin (converted)).
For `Cc1ccnc(Cn2c(-c3ccc(OC4CC5(CNC5)C4)cc3Cl)nc3c(OC4(C)CC4)ncnc32)c1` [Example T457, 8-(4-((2-azaspiro[3.3]heptan-6-yl)oxy)-2-chlorophenyl)-6-(1-methylcyclopropoxy)-9-((4-methylpyridin-2-yl)methyl)-9H-purine], the IC50 was 316 nM in assay [1] (setting [3]) and greater than 10000 nM in assay [2] (setting [4]).
With `Cc1ccnc(Cn2c(-c3ccc(C(=O)O)cc3Cl)nc3c(OC4(C)CC4)ncnc32)c1` [Example T13, 3-chloro-4-(6-(1-methylcyclopropoxy)-9-((4-methylpyridin-2-yl)methyl)-9H-purin-8-yl)benzoic acid], the IC50 in assay [1] (DLD-1, DLD-1 BRCA2 −/− cells, mean, read-out: POLQ PD Prolif Lumin BRCA2 −/− mean pIC50 (converted)) was greater than 10000 nM; in assay [2] (DLD-1, DLD1 BRCA2 wt cells, mean, read-out: POLQ PD Prolif Lumin DLD1 mean PIC50 (converted)) it was greater than 10000 nM.
For the compound `Cc1ccnc(Cn2c(-c3ccc(CC(=O)N4CC(C)(O)C4)cc3Cl)nc3c(OC4(C)CC4)ncnc32)c1` [Example T470, 2-(3-chloro-4-(6-(1-methylcyclopropoxy)-9-((4-methylpyridin-2-yl)methyl)-9H-purin-8-yl)phenyl)-1-(3-hydroxy-3-methylazetidin-1-yl)ethan-1-one], the IC50 was 1000 nM in assay [1] (setting [3]) and greater than 10000 nM in assay [2] (setting [4]).
As for `CC1(Oc2ncnc3c2nc(-c2ccc(OCCN4CCC(O)CC4)cc2Cl)n3Cc2ccccc2)CC1` [Example H15, 1-(2-(4-(9-benzyl-6-(1-methylcyclopropoxy)-9H-purin-8-yl)-3-chlorophenoxy)ethyl)piperidin-4-ol], the IC50 in assay [1] (setting [5]) was 79.4 nM; in assay [2] (setting [6]) it was 1580 nM.
For `C[C@@H]1C(=O)NCCN1CCOc1ccc(-c2nc3c(OC4(C)CC4)ncnc3n2Cc2ccccc2)c(Cl)c1` [Example H22, (R)-4-(2-(4-(9-benzyl-6-(1-methylcyclopropoxy)-9H-purin-8-yl)-3-chlorophenoxy)ethyl)-3-methylpiperazin-2-one] the same measures were 126 nM and greater than 10000 nM.
As for `CC1(Oc2ncnc3c2nc(-c2ccc(OCCN4CCNCC4)cc2Cl)n3Cc2ncc(C(F)(F)F)s2)CC1` [Example T207, 2-((8-(2-chloro-4-(2-(piperazin-1-yl)ethoxy)phenyl)-6-(1-methylcyclopropoxy)-9H-purin-9-yl)methyl)-5-(trifluoromethyl)thiazole], the values for the IC50 in assay [1] (setting [7]) and in assay [2] (setting [8]) were 794 nM and 10000 nM, respectively.
For `CC(CCOc1ccc(-c2nc3c(OC4(C)CC4)ncnc3n2Cc2c(F)c(F)c(F)c(F)c2F)c(Cl)c1)C(=O)O` (racemic) [Example T251, 4-(3-chloro-4-(6-(1-methylcyclopropoxy)-9-((perfluorophenyl)methyl)-9H-purin-8-yl)phenoxy)-2-methylbutanoic acid] the same measures were 2000 nM and greater than 10000 nM.
Turning to `COc1cccc(Cn2c(-c3ccc(OCCN4CCNCC4)cc3Cl)nc3c(OC4(C)CC4)ncnc32)n1` [Example K10, 8-(2-chloro-4-(2-(piperazin-1-yl)ethoxy)phenyl)-9-((6-methoxypyridin-2-yl)methyl)-6-(1-methylcyclopropoxy)-9H-purine], the IC50 in assay [1] (setting [5]) is 1580 nM; in assay [2] (setting [6]) it was greater than 10000 nM.
Take `COc1ccc(Cl)cc1Cn1c(-c2cccc(OCCOCC(=O)O)c2Cl)nc2c(OC3(C)CC3)ncnc21` [Example U52, 2-(2-(2-chloro-3-(9-(5-chloro-2-methoxybenzyl)-6-(1-methylcyclopropoxy)-9H-purin-8-yl)phenoxy)ethoxy)acetic acid]: the IC50 in assay [1] (setting [9]) was 50.1 nM; in assay [2] (setting [10]), greater than 10000 nM.
In the case of `Cc1ccnc(Cn2c(-c3ccc(CC(=O)N(C)CCO)cc3Cl)nc3c(OC4(C)CC4)ncnc32)c1` [Example T369, 2-(3-chloro-4-(6-(1-methylcyclopropoxy)-9-((4-methylpyridin-2-yl)methyl)-9H-purin-8-yl)phenyl)-N-(2-hydroxyethyl)-N-methylacetamide], the results for the IC50 in assay [1] (setting [11]) and in assay [2] (setting [12]) were 1000 nM and greater than 10000 nM, respectively.
For the compound `COc1ccc(Cl)cc1Cn1c(-c2cccc(CCCC(=O)O)c2Cl)nc2c(OC3(C)CC3)ncnc21` [Example U62, 4-(2-chloro-3-(9-(5-chloro-2-methoxybenzyl)-6-(1-methylcyclopropoxy)-9H-purin-8-yl)phenyl)butanoic acid], the IC50 in assay [1] (setting [9]) is 50.1 nM; in assay [2] (setting [10]) it was greater than 10000 nM.
Consider `Clc1cc(OCCN2CCNCC2)ccc1-c1nc2c(OC3CCC3)ncnc2n1Cc1ccccc1` [Example T506, 9-benzyl-8-(2-chloro-4-(2-(piperazin-1-yl)ethoxy)phenyl)-6-cyclobutoxy-9H-purine], for which the IC50 is 501 nM in assay [1] (DLD-1, first proliferation column (c5), DLD-1 BRCA2-/-, read-out: POLQ PD Prolif Lumin (converted)) and 2000 nM in assay [2] (DLD-1, second proliferation column (c6), DLD-1 BRCA2 wt control, read-out: POLQ PD Prolif Lumin (converted)).
Regarding `CC1(Oc2ncnc3c2nc(-c2ccc(OCc4nc(C(=O)O)cs4)cc2Cl)n3Cc2cccc(Cl)c2)CC1` [Example T250, 2-((3-chloro-4-(9-(3-chlorobenzyl)-6-(1-methylcyclopropoxy)-9H-purin-8-yl)phenoxy)methyl)thiazole-4-carboxylic acid], the figures for the IC50 in assay [1] (setting [7]) and in assay [2] (setting [8]) were 3160 nM and greater than 10000 nM, respectively.
Turning to `COc1ccc(C(F)(F)F)cc1Cn1c(-c2ccc(OCC[C@H](C)C(=O)O)cc2Cl)nc2c(OC3(C)CC3)ncnc21` [Example U76, (S)-4-(3-chloro-4-(9-(2-methoxy-5-(trifluoromethyl)benzyl)-6-(1-methylcyclopropoxy)-9H-purin-8-yl)phenoxy)-2-methylbutanoic acid], the IC50 in assay [1] (setting [9]) was 200 nM; in assay [2] (setting [10]), greater than 10000 nM.
Turning to `CC(COc1cccc(-c2nc3c(OC4(C)CC4)ncnc3n2Cc2cccc(Cl)c2)c1Cl)CC(=O)O` (single isomer, unassigned) [Example T299, 4-(2-chloro-3-(9-(3-chlorobenzyl)-6-(1-methylcyclopropoxy)-9H-purin-8-yl)phenoxy)-3-methylbutanoic acid], the IC50 in assay [1] (setting [11]) is 79.4 nM; in assay [2] (setting [12]), greater than 10000 nM.
In the case of `Cc1cnc(Cn2c(-c3ccc(OC4CCCNCC4)cc3Cl)nc3c(OC4(C)CC4)ncnc32)s1` (single isomer, unassigned) [Example T242, 2-((8-(4-(azepan-4-yloxy)-2-chlorophenyl)-6-(1-methylcyclopropoxy)-9H-purin-9-yl)methyl)-5-methylthiazole], the IC50 was 794 nM in assay [1] (setting [7]) and greater than 10000 nM in assay [2] (setting [8]).

Values taken from patent US20250195530A1, “POLQ INHIBITORS” (ASTRAZENECA AB, priority 2022, published 2025).
